Results published in patent publication US20240239790A1, “7-Morpholino-1,6-Naphthyridin-5-yl Derivatives and Pharmaceutical Compositions Thereof Useful as DNA-PK Inhibitor” (adMare Therapeutics Society, priority 2021, published 2024).
Where two headings read alike, the source gives them in different places.

Tests used:
[1] = target: T1, DNA-PK phosphorylation at Serine 2056 (Homo sapiens, UniProt P78527); test: Cellular Assay for Inhibition of DNA-PK Phosphorylation at Serine 2056 in FaDu cells (sandwich ELISA, neocarzinostatin); format: cell-based; conditions: pSer2056 DNA-PK
T1 construct: FaDu cells were purchased from ATCC; host or cells: FaDu
Outline: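 FaDu cells pre-treated with compound (0.3% DMSO) for 1 h, then neocarzinostatin 1 μg/mL final added for 2 h to induce DSBs. Protein-normalised lysates read by sandwich ELISA for total and pSer2056 DNA-PK; % inhibition normalised between DMSO and NCS controls, IC50 from variable-slope log(inhibitor) fit.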

DNA-PK = target: T2, DNA-PK (Homo sapiens, UniProt P78527); test: DNA-PK Assay for Biochemical Enzymatic Inhibition (ADP Glo Kinase assay); conditions: DNA-PK enzyme
T2 construct: purchased Invitrogen PR9107A
Outline: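 Human DNA-PK (25 ng) preincubated 15 min with compounds (ten three-fold dilutions) in HEPES pH 7.5, MgCl2, KCl, calf thymus DNA buffer, then substrate 434.4 μM and ATP 64.4 μM (final) for 60 min at room temperature. ADP-Glo luminescence; percent inhibition fitted by four-parameter regression for IC50.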

[2] = Microsomal Stability Assay, human liver microsomes; format: in vitro ADME; conditions: for microsomal CLint at 0.1 uM: both sexes, pH 7.4
Description: (§1) Samples were then mixed and centrifuged. Supernatants were used for HPLC-MS/MS analysis. […] Peak areas corresponding to the test compound were recorded.

[3] = test system: pDNA-PK induction in HCT116 tumour spheroids; test: Multicellular tumour spheroid + radiation, pDNA-PK (ser2056) inhibition, immunohistochemical endpoint, HCT116; format: cell-based; conditions: Homo sapiens, HCT-116, 20 Gy, 2 hours following radiation, 20% O2
Outline: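 HCT116 spheroids (~0.5 mm) in MEM/10% FBS, 20% O2, 37° C., pre-incubated 1 h with compound (10 or 5 μM down to 3.5 nM), irradiated 20 Gy, then 2 h further with compound. Cryosections immunostained for pDNA-PK ser2056; EC50 is concentration halving radiation-induced pDNA-PK.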

[4] = Microsomal Stability Assay, mouse liver microsomes; format: in vitro ADME; conditions: for microsomal CLint at 0.1 uM: male, CD-1, pH 7.4
Description: as §1

[5] = test system: pH2AX induction in HCT116 ATM-/- multicellular tumour spheroids; test: Prodrug Radiation Sensitization in Multicellular Tumour Spheroids, inhibition of pH2AX induction following radiation; format: cell-based; conditions: Homo sapiens, HCT-116, 20 Gy
Outline: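 HCT116 and FaDu spheroids (~0.5 mm diameter), ATM-deficient lines included, in MEM/10% FBS/10 mM glucose at 37 °C under 20% vs 5% oxygen with stirring. Prodrugs 10 μM down to 3.5 nM, 20 Gy irradiation. pDNA-PK (ser 2056) or pH2AX (ser 139) scored in formalin-fixed cryosections 1 or 2 h post-radiation.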

FaDu cell line = test: Prodrug Activation in Hypoxic Stirred Tumour Cell Suspensions; conditions: 10 μM, 4 hours
FaDu tumour xenograft = test: Tumour Growth Delay, FaDu tumour xenograft-bearing animals, compound ± radiation (TGD-ER); format: in vivo; conditions: PO
Description: FaDu tumour xenograft-bearing animals were monitored for tumour growth and once average tumour size reached approximately 100-250 mm3, animals were assigned to treatment cohorts using stratified randomization. […]
For BID dosing regimens, at 8 h following the first injection, animals were again administered with test compound at the same dose as their previous administration. Animals were weighed and had tumours measured using calipers three times weekly until the endpoint of maximum tumour volume, 1000 mm3, was reached and animals were euthanized. Tumour volumes were calculated according to the equation L×W^2/2 with the length (mm) being the longer axis of the tumour; in the case that no tumour was palpable, tumour volumes were recorded as 0 mm^3.
Data were calculated as tumour growth normalized to day 0 measurements, with time to tumour doubling determined. Average time to tumour doubling for each group was used to determine a Tumour Growth Delay Enhancement Ratio (TGD-ER): the time to doubling for treatment groups were divided by the time to doubling for irradiation-alone groups to determine group-specific TGD-ER values, and these were assigned scores based on defined response ranges: values>2.5=A, 1-2.5=B, <1=C.

[6] = neocarzinostatin 1 μg/mL, Table 1
[7] = human liver microsomes 0.1 mg/mL, 0.1 uM compound
[8] = Example 9 Study 2, read-out: Spheroid Cell line: HCT116 Immunohistochemical endpoint pDNA-PK inhibition EC50
[9] = Spheroid, Cell Line: HCT115 (so in the source), Example 7, read-out: EC50, Immunohistochemical endpoint, pDNA-PK inhibition
[10] = mouse liver microsomes 0.1 mg/mL, 0.1 uM compound
[11] = 5% O2, inner layers, read-out: Prodrug 5% O2 Inner layers EC50
[12] = 5% O2, outer layers, read-out: Prodrug 5% O2 Outer layers EC50
[13] = 20% O2, outer layers, read-out: Prodrug 20% O2 Outer layers EC50
[14] = human liver microsomes, Example 11
[15] = mouse liver microsomes, Example 11

Compound	IC50 [1, 6] [nM]	IC50 (DNA-PK; Table 1) [nM]	microsomal CLint at 0.1 uM [2, 7] [µL/min/mg]	Microsomal Stability Human % rem. 60 min ([2]; human liver microsomes)	EC50 [3, 8] [nM]	EC50 [3, 9] [nM]	microsomal CLint at 0.1 uM [4, 10] [µL/min/mg]	Microsomal Stability Mouse % rem. 60 min ([4]; mouse liver microsomes)	IC50 ([1]; Table 2) [nM]	IC50 (DNA-PK; Table 2) [nM]	microsomal CLint at 0.1 uM [2, 14] [µL/min/mg]	Microsomal Stability Human % rem. 60 min [2, 14]	microsomal CLint at 0.1 uM [4, 15] [µL/min/mg]	Microsomal Stability Mouse % rem. 60 min [4, 15]	further results
CN(C)C(=O)COc1ccnc(N[C@H]2CC[C@@H](Oc3nc(N4CCOCC4)cc4ncccc34)CC2)n1 [Compound 56, N,N-dimethyl-2-((2-(((1s,4s)-4-((7-morpholino-1,6-naphthyridin-5-yl)oxy)cyclohexyl)amino)pyrimidin-4-yl)oxy)acetamide]	100 to 1000	< 0.5	> 116	E (% remaining = 0-25%)	500 to 1000	500 to 1000	> 116	E (% remaining = 0-25%)	–	–	–	–	–	–	–
CS(=O)(=O)NCCOc1cnc(N[C@H]2CC[C@@H](Oc3nc(N4CCOCC4)cc4ncccc34)CC2)nc1 [Compound 67]	< 100	< 0.5	> 116	E (% remaining = 0-25%)	10 to 500	500 to 1000	< 116	G (% remaining = 50-75%)	–	–	–	–	–	–	–
c1cnc2cc(N3CCOCC3)nc(O[C@H]3CC[C@@H](Nc4ncc(OCCN5CCNCC5)cn4)CC3)c2c1 [Compound 70, N-((1s,4s)-4-((7-Morpholino-1,6-naphthyridin-5-yl)oxy)cyclohexyl)-5-(2-(piperazin-1-yl)ethoxy)pyrimidin-2-amine]	< 100	< 0.5	> 116	F (% remaining = 25-50%)	1000 to 10000	1000 to 10000	> 116	F (% remaining = 25-50%)	–	–	–	–	–	–	–
CN(C)C(=O)COc1cnc(C(=O)N[C@H]2CC[C@@H](Oc3nc(N4CCOCC4)cc4ncccc34)CC2)nc1 [Compound 125]	100 to 1000	0.5 to 1	< 116	H (% remaining = 75-100%)	1000 to 10000	1000 to 10000	< 116	H (% remaining = 75-100%)	–	–	–	–	–	–	–
O=S(=O)(Nc1cnc2cc(N3CCOCC3)nc(O[C@H]3CC[C@@H](Nc4ncccn4)CC3)c2c1)C1CC1 [Compound 186, N-(7-morpholino-5-(((1s,4s)-4-(pyrimidin-2-ylamino)cyclohexyl)oxy)-1,6-naphthyridin-3-yl)cyclopropanesulfonamide]	< 100	0.5 to 1	> 116	F (% remaining = 25-50%)	1000 to 10000	1000 to 10000	< 116	G (% remaining = 50-75%)	–	–	–	–	–	–	–
Cn1c(CN(c2cnc3cc(N4CCOCC4)nc(OC4CCC(NC(=O)c5ncccn5)CC4)c3c2)S(C)(=O)=O)cnc1[N+](=O)[O-] (stereo not shown) [LFA016, N-[4-[[3-[(3-Methyl-2-nitro-imidazol-4-yl)methyl-methylsulfonyl-amino]-7-morpholino-1,6-naphthyridin-5-yl]oxy]cyclohexyl]pyrimidine-2-carboxamide]	–	–	–	–	–	–	–	–	10000 to 30000	10 to 150	< 116	F (% remaining = 25-50%)	< 116	G (% remaining = 50-75%)	EC50 [5, 11]: 1000 to 10000 nM; EC50 [5, 12]: 1000 to 10000 nM; EC50 [5, 13]: 10000 to 100000 nM; Fraction of prodrug converted to active form, Hypoxic 0.2% O2 (FaDu cell line): C (C is 0.02 to 0.05); Fraction of prodrug converted to active form, Oxic 5% O2 (FaDu cell line): D (D is 0 to 0.02)
CN1CCN(CCOc2cnc(N[C@H]3CC[C@@H](Oc4nc(N5CCOCC5)cc5ncc(NS(C)(=O)=O)cc45)CC3)nc2)CC1 [LFA031, N-[5-[4-[[5-[2-(4-Methylpiperazin-1-yl)ethoxy]pyrimidin-2-yl]amino]cyclohexoxy]-7-morpholino-1,6-naphthyridin-3-yl]methanesulfonamide]	–	–	–	–	–	–	–	–	–	–	–	–	–	–	TGD-ER Range Score (FaDu tumour xenograft; 30 mpk BID + 10 Gy): B (1-2.5=B)
CC(c1cnc([N+](=O)[O-])n1C)N(c1cnc2cc(N3CCOCC3)nc(O[C@H]3CC[C@@H](Nc4ncc(OCCN5CCN(C)CC5)cn4)CC3)c2c1)S(C)(=O)=O (stereo partly shown) [LFA033, N-[1-(3-Methyl-2-nitro-imidazol-4-yl)ethyl]-N-[5-[4-[[5-[2-(4-methylpiperazin-1-yl)ethoxy]pyrimidin-2-yl]amino]cyclohexoxy]-7-morpholino-1,6-naphthyridin-3-yl]methanesulfonamide]	–	–	–	–	–	–	–	–	–	–	–	–	–	–	TGD-ER Range Score (FaDu tumour xenograft; 50 mpk BID + 10 Gy): C (<1=C)
CN(C)C(=O)COc1cnc(N[C@H]2CC[C@@H](Oc3nc(N4CCOCC4)cc4ncc(O)cc34)CC2)nc1 [LFA113, 2-[2-[[4-[(3-Hydroxy-7-morpholino-1,6-naphthyridin-5-yl)oxy]cyclohexyl]amino]pyrimidin-5-yl]oxy-N,N-dimethyl-acetamide]	–	–	–	–	–	–	–	–	< 100	< 0.5	< 116	H (% remaining = 75-100%)	< 116	F (% remaining = 25-50%)	–
CN(C)C(=O)COc1cnc(N[C@H]2CC[C@@H](Oc3nc(N4CCOCC4)cc4ncc(OCc5cnc([N+](=O)[O-])n5C)cc34)CC2)nc1 [LFA114, N,N-Dimethyl-2-[2-[[4-[[3-[(3-methyl-2-nitro-imidazol-4-yl)methoxy]-7-morpholino-1,6-naphthyridin-5-yl]oxy]cyclohexyl]amino]pyrimidin-5-yl]oxy-acetamide]	–	–	–	–	–	–	–	–	10000 to 30000	10 to 150	< 116	E (% remaining = 0-25%)	> 116	E (% remaining = 0-25%)	EC50 [5, 11]: 10 to 500 nM; EC50 [5, 12]: 500 to 1000 nM; EC50 [5, 13]: 1000 to 10000 nM; Fraction of prodrug converted to active form, Hypoxic 0.2% O2 (FaDu cell line): A (A is 0.15 to 1); Fraction of prodrug converted to active form, Oxic 5% O2 (FaDu cell line): B (B is 0.05 to 0.15)
